Test results from patent publication US20230339851A1, “CXCR6 SULFONAMIDE COMPOUNDS” (CHEMOCENTRYX, INC., priority 2022, published 2023).

What follows are compounds tested against T1, human CXCR6 (Homo sapiens, UniProt O00574) (assay: Radioligand Binding Assay (125I-CXCL16 displacement)). Conditions: L1.2 cells stably transfected with human CXCR6 cDNA, 0.1 nM 125I-CXCL16, 4° C., three-hour incubation; read-out: Potency (IC50).
T1 construct: expressed in transfected cells
Description: L1.2 cells stably transfected with human CXCR6 cDNA ([…]) were incubated at 4° C. in HBSS containing 0.1 % BSA and 0.1 nM of ^125I-CXCL16 plus various concentrations of Compound. Following a three-hour incubation period, cells were aspirated onto polyethyleneimine-treated GF/B glass fiber filters (PerkinElmer, Waltham, MA) with a cell harvester (Tomtec, Hamden, CT) and washed twice with washing buffer (25 mM Hepes, 500 mM NaCl, 1 mM CaCI2, 5 mM MgCI2, pH 7.1). Fifty µl of MicroScint-20 (PerkinElmer, Waltham, MA) was added to each well of the filters, and radioactive emissions (cpm) were measured on a Packard TopCount Scintillation counter (PerkinElmer, Waltham, MA). IC50 values were calculated with GraphPad Prism using 3 parameter nonlinear regression. […]

T1 sequence (O00574 whole entry): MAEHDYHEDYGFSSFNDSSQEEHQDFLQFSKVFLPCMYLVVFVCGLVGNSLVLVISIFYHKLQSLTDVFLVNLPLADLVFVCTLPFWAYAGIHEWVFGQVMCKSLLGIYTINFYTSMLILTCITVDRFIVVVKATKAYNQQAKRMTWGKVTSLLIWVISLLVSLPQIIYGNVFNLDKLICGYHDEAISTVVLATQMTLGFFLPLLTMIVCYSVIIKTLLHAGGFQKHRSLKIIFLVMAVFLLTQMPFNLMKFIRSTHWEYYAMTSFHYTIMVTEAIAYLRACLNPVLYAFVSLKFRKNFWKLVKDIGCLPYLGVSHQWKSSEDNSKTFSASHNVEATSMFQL

`CCOc1cc(NC(=O)C2CCOCC2)ccc1S(=O)(=O)Nc1ccc(C)c(OC(F)(F)F)c1` [Example 1.123] and `CCOc1cc(NC(=O)C2CC=CC[C@@H]2O)ccc1S(=O)(=O)Nc1ccc(C)c(OC(F)(F)F)c1` (some centres unmarked) [Example 1.172] cannot be ordered by IC50: at most 200 nM for the first, at most 200 nM for the second.

`CCCCOc1cc(NC(=O)c2ccns2)ccc1S(=O)(=O)Nc1cccc(C(F)(F)F)c1` [Example 1.124] and `CCCCOc1cc(NC(=O)c2ccnn2C)ccc1S(=O)(=O)Nc1cccc(C(F)(F)F)c1` [Example 1.156] fall in the same range of IC50: 2000 to 20000 nM for the first, 2000 to 20000 nM for the second.

First: COc1cc(NC(=O)c2ccnn2C)ccc1S(=O)(=O)Nc1ccc(OC(F)(F)F)c(C)c1 [Example 1.125]
Second: COc1cc(NC(=O)c2ccnn2C)ccc1S(=O)(=O)Nc1ccc(C)c(OC(F)(F)F)c1 [Example 1.151]
The IC50 of the first is higher: 750 to 2000 nM for the first, at most 200 nM for the second. The second is the more potent here.

`CCOc1cc(NC(=O)c2cc(=O)n(C)cc2C)ccc1S(=O)(=O)Nc1cccc(OC(F)(F)F)c1` [Example 1.126] and `CCOc1cc(NC(=O)c2ccnn2C)ccc1S(=O)(=O)Nc1cccc(OC(F)(F)F)c1` [Example 1.157] cannot be ordered by IC50: at most 200 nM for the first, at most 200 nM for the second.

`CCOc1cc(NC(=O)C(COC)C(=O)O)ccc1S(=O)(=O)Nc1cccc(OC(F)(F)F)c1` (centres unmarked) [Example 1.127] and `C=C(C)CC(C(=O)O)C(=O)Nc1ccc(S(=O)(=O)Nc2cccc(OC(F)(F)F)c2)c(OCC)c1` (centres unmarked) [Example 1.176] cannot be ordered by IC50: 200 to 750 nM for the first, at most 200 nM for the second.

`CCOc1cc(NC(=O)C(CO)CCC(C)C)ccc1S(=O)(=O)Nc1cccc(OC(F)(F)F)c1` (centres unmarked) [Example 1.128] and `CCOc1cc(NC(=O)[C@H](CO)C(C)C)ccc1S(=O)(=O)Nc1cccc(OC(F)(F)F)c1` [Example 1.139] cannot be ordered by IC50: at most 200 nM for the first, at most 200 nM for the second.

`COc1cc(NC(=O)[C@@H](O)c2ccccc2)ccc1S(=O)(=O)Nc1cccc(OC(F)(F)F)c1` [Example 1.129] and `CCOc1cc(NC(=O)[C@@H](O)c2ccccc2)ccc1S(=O)(=O)Nc1cccc(OC(F)(F)F)c1` [Example 1.168] cannot be ordered by IC50: at most 200 nM for the first, at most 200 nM for the second.

First: CC(=O)Nc1ccc(S(=O)(=O)Nc2cccc(C(F)(F)F)c2)c(Br)c1 [Example 1.130]
Second: Cn1nccc1C(=O)Nc1ccc(S(=O)(=O)Nc2cccc(C(F)(F)F)c2)c(Cl)c1 [Example 1.141]
The IC50 of the first is higher: 2000 to 20000 nM for the first, 200 to 750 nM for the second. The second is the more potent here.

Compared with `CCOc1cc(NC(=O)CC(O)CC2CCOCC2)ccc1S(=O)(=O)Nc1cccc(OC(F)(F)F)c1` (centres unmarked) [Example 1.131], `CCOc1cc(NC(=O)C(O)C2CCCC2)ccc1S(=O)(=O)Nc1cccc(OC(F)(F)F)c1` (centres unmarked) [Example 1.177] is lower in IC50: 2000 to 20000 nM for the first, at most 200 nM for the second. The second is the more potent here.

First: CC(=O)Nc1ccc(S(=O)(=O)Nc2cccc(OC(F)(F)F)c2)c(C(C)C)c1 [Example 1.132]
Second: Cc1cc(NC(=O)[C@@H](CO)C(C)C)ccc1S(=O)(=O)Nc1cccc(OC(F)(F)F)c1 [Example 1.174]
The IC50 of the first is higher: 2000 to 20000 nM for the first, at most 200 nM for the second. The second is the more potent here.

`CCOc1cc(NC(=O)C(C(C)C)C(C)O)ccc1S(=O)(=O)Nc1cccc(OC(F)(F)F)c1` (centres unmarked) [Example 1.133] and `CCOc1cc(NC(=O)[C@H](N)C(C)C)ccc1S(=O)(=O)Nc1cccc(OC(F)(F)F)c1` [Example 1.158] cannot be ordered by IC50: at most 200 nM for the first, at most 200 nM for the second.

`CC(C)[C@H](O)C(=O)Nc1ccc(S(=O)(=O)Nc2cccc(OC(F)(F)F)c2)c(OC(F)(F)F)c1` [Example 1.134] and `CC(C)[C@H](O)C(=O)Nc1ccc(S(=O)(=O)Nc2cccc(OC(F)(F)F)c2)c(C#N)c1` [Example 1.165] fall in the same range of IC50: 200 to 750 nM for the first, 200 to 750 nM for the second.

`CCOc1cc(NC(=O)[C@@H](CO)C2CC2)ccc1S(=O)(=O)Nc1ccc(CC)c(C)c1` [Example 1.135] and `C=Cc1ccc(NS(=O)(=O)c2ccc(NC(=O)[C@@H](CO)C3CC3)cc2OCC)cc1C` [Example 1.146] cannot be ordered by IC50: at most 200 nM for the first, at most 200 nM for the second.

First: COc1ccc(C(=O)Nc2ccc(S(=O)(=O)Nc3cccc(C(F)(F)F)c3)c(C)c2)cc1 [Example 1.136]
Second: CCc1cc(NC(=O)c2ccccc2)ccc1S(=O)(=O)Nc1cccc(C(F)(F)F)c1 [Example 1.193]
The IC50 of the first is higher: 750 to 2000 nM for the first, 200 to 750 nM for the second.

`CCOC(=O)[C@H]1CC=CC[C@@H]1C(=O)Nc1ccc(S(=O)(=O)Nc2cccc(OC(F)(F)F)c2)c(OCC)c1` [Example 1.138] and `CCOc1cc(NC(=O)[C@H]2CC=CC[C@H]2C(=O)O)ccc1S(=O)(=O)Nc1cccc(OC(F)(F)F)c1` [Example 1.160] cannot be ordered by IC50: at most 200 nM for the first, at most 200 nM for the second.

First: COc1cc(NC(=O)C2CCC(O)CC2)ccc1S(=O)(=O)Nc1cccc(C(F)(F)F)c1 (centres unmarked) [Example 1.140]
Second: CCOc1cc(NC(=O)C2CCC(O)CC2)ccc1S(=O)(=O)Nc1cccc(OC(F)(F)F)c1 (centres unmarked) [Example 1.183]
The IC50 of the first is higher: 2000 to 20000 nM for the first, 200 to 750 nM for the second. The second is the more potent here.

`CCOc1cc(NC(=O)[C@@H](CO)C(C)C)ccc1S(=O)(=O)Nc1ccc(C)c(Cl)c1` [Example 1.142] and `CCOc1cc(NC(=O)[C@@H](CO)C(C)C)ccc1S(=O)(=O)Nc1cccc(C(C)C)c1` [Example 1.155] cannot be ordered by IC50: at most 200 nM for the first, at most 200 nM for the second.

`COCc1cc(NC(=O)[C@@H](CO)c2ccccc2)ccc1S(=O)(=O)Nc1cccc(OC(F)(F)F)c1` [Example 1.143] and `CCc1cc(NC(=O)[C@@H](CO)c2ccccc2)ccc1S(=O)(=O)Nc1cccc(OC(F)(F)F)c1` [Example 1.163] cannot be ordered by IC50: at most 200 nM for the first, at most 200 nM for the second.

First: CCOC(=O)C(C(=O)Nc1ccc(S(=O)(=O)Nc2cccc(OC(F)(F)F)c2)c(OCC)c1)C1CCCC1 (centres unmarked) [Example 1.144]
Second: CCOc1cc(NC(=O)[C@H]2CCCC[C@@H]2O)ccc1S(=O)(=O)Nc1cccc(OC(F)(F)F)c1 [Example 1.169]
The IC50 of the first is lower: at most 200 nM for the first, 750 to 2000 nM for the second. The first is the more potent here.

Compared with `COc1cc(NC(=O)c2ccnn2C)ccc1S(=O)(=O)Nc1cccc(OC(C)C)c1` [Example 1.145], `COc1cc(NC(=O)c2ccnn2C)ccc1S(=O)(=O)Nc1cccc(C(F)(F)F)c1` [Example 1.153] is lower in IC50: 750 to 2000 nM for the first, 200 to 750 nM for the second. The second is the more potent here.

`Cc1cc(NC(=O)N2CCOCC2)ccc1S(=O)(=O)Nc1cccc(C(F)(F)F)c1` [Example 1.148] and `COc1cc(NC(=O)CC2CCCO2)ccc1S(=O)(=O)Nc1cccc(C(F)(F)F)c1` (centres unmarked) [Example 1.189] fall in the same range of IC50: 2000 to 20000 nM for the first, 2000 to 20000 nM for the second.

`CCOc1cc(NC(=O)c2ccc(C)nc2)ccc1S(=O)(=O)Nc1cccc(OC(F)(F)F)c1` [Example 1.149] and `CCOc1cc(NC(=O)c2cccnc2N)ccc1S(=O)(=O)Nc1cccc(OC(F)(F)F)c1` [Example 1.162] cannot be ordered by IC50: at most 200 nM for the first, at most 200 nM for the second.

`CCc1cc(NC(=O)[C@@H](CO)C2CC2)ccc1S(=O)(=O)Nc1cccc(OC(F)(F)F)c1` [Example 1.150] and `COCc1cc(NC(=O)[C@@H](O)C(C)C)ccc1S(=O)(=O)Nc1cccc(OC(F)(F)F)c1` [Example 1.188] cannot be ordered by IC50: at most 200 nM for the first, at most 200 nM for the second.

First: CCOc1cc(NC(=O)C2CCC(=O)C2)ccc1S(=O)(=O)Nc1cccc(OC(F)(F)F)c1 (centres unmarked) [Example 1.152]
Second: CCOc1cc(NC(=O)C2CCN(C)CC2)ccc1S(=O)(=O)Nc1cccc(OC(F)(F)F)c1 [Example 1.192]
The IC50 of the first is lower: 200 to 750 nM for the first, 2000 to 20000 nM for the second. The first is the more potent here.

`CCOc1cc(NC(=O)[C@@H](O)C(C)C)ccc1S(=O)(=O)Nc1ccc(Cl)c(OC)c1` [Example 1.154] and `COc1cc(NC(=O)[C@@H](CO)C(C)C)ccc1S(=O)(=O)Nc1ccc(C)c(OC(F)(F)F)c1` [Example 1.191] cannot be ordered by IC50: 200 to 750 nM for the first, at most 200 nM for the second.

First: CCOc1cc(NC(=O)[C@@H](CO)C(C)C)ccc1S(=O)(=O)Nc1cccc(Cl)c1C(F)(F)F [Example 1.159]
Second: CCOc1cc(NC(=O)[C@@H](CO)C(C)C)ccc1S(=O)(=O)Nc1cccc(C(C)(F)F)c1 [Example 1.181]
The IC50 of the first is higher: 2000 to 20000 nM for the first, at most 200 nM for the second.

First: CCOc1cc(NC(=O)C2CCN(C(C)=O)CC2)ccc1S(=O)(=O)Nc1cccc(OC(F)(F)F)c1 [Example 1.161]
Second: CCOc1cc(NC(=O)C2CCC[C@@H]2O)ccc1S(=O)(=O)Nc1cccc(OC(F)(F)F)c1 (some centres unmarked) [Example 1.185]
The IC50 of the first is higher: 2000 to 20000 nM for the first, 200 to 750 nM for the second. The second is the more potent here.

First: CCOc1cc(NC(=O)C(O)C(C)O)ccc1S(=O)(=O)Nc1cccc(OC(F)(F)F)c1 (centres unmarked) [Example 1.164]
Second: C=C(C)CC(CCO)C(=O)Nc1ccc(S(=O)(=O)Nc2cccc(OC(F)(F)F)c2)c(OCC)c1 (centres unmarked) [Example 1.180]
The IC50 of the first is higher: 750 to 2000 nM for the first, at most 200 nM for the second.

`CCOc1cc(NC(=O)CC(C)(C)O)ccc1S(=O)(=O)Nc1cccc(OC(F)(F)F)c1` [Example 1.166] and `CCOc1cc(NC(=O)CCOC)ccc1S(=O)(=O)Nc1cccc(OC(F)(F)F)c1` [Example 1.186] fall in the same range of IC50: 750 to 2000 nM for the first, 750 to 2000 nM for the second.

First: CCOc1cc(NC(=O)[C@@H](CO)c2ccccc2)ccc1S(=O)(=O)Nc1cccc(C(C)(C)C)c1 [Example 1.170]
Second: CCOc1cc(NC(=O)[C@@H](CO)c2ccccc2)ccc1S(=O)(=O)Nc1ccc(C)c(F)c1 [Example 1.184]
The IC50 of the first is lower: at most 200 nM for the first, 750 to 2000 nM for the second. The first is the more potent here.

`CCOc1cc(NC(=O)c2cncnc2)ccc1S(=O)(=O)Nc1cccc(OC(F)(F)F)c1` [Example 1.171] and `CCOc1cc(NC(=O)[C@H]2CC=CC[C@H]2O)ccc1S(=O)(=O)Nc1cccc(OC(F)(F)F)c1` [Example 1.173] cannot be ordered by IC50: at most 200 nM for the first, 200 to 750 nM for the second.

`CCOc1cc(NC(=O)[C@@H](CO)c2ccccc2)ccc1S(=O)(=O)Nc1ccc(Cl)c(Cl)c1` [Example 1.175] and `CCOc1cc(NC(=O)[C@@H](CO)c2ccccc2)ccc1S(=O)(=O)Nc1ccc(Cl)c(C(F)(F)F)c1` [Example 1.178] fall in the same range of IC50: 200 to 750 nM for the first, 200 to 750 nM for the second.

`COc1cc(NC(=O)C2CC3C=CC2O3)ccc1S(=O)(=O)Nc1cccc(OC(F)(F)F)c1` (centres unmarked) [Example 1.179] and `CCOc1cc(NC(=O)C(O)Cc2ccccc2)ccc1S(=O)(=O)Nc1cccc(OC(F)(F)F)c1` (centres unmarked) [Example 1.182] cannot be ordered by IC50: 200 to 750 nM for the first, at most 200 nM for the second.

`Cn1nccc1C(=O)Nc1ccc(S(=O)(=O)Nc2cccc(C(F)(F)F)c2)c(C#N)c1` [Example 1.187] and `CCOc1cc(NC(=O)[C@@H](CO)c2ccccc2)ccc1S(=O)(=O)Nc1cccc(Cl)c1OC` [Example 1.190] fall in the same range of IC50: 2000 to 20000 nM for the first, 2000 to 20000 nM for the second.
